The values below come from article PMC10403574, “Discovery of a pyrrole-pyridinimidazole derivative as novel SIRT6 inhibitor for sensitizing pancreatic cancer to gemcitabine” (Cell Death & Disease, 2023).

Assay [1] has as its target T1, SIRT6 (Homo sapiens, UniProt Q8N6T7). Description: Fluor-De-Lys (FDL) SIRT6 deacetylation assay. The assay is classed as biochemical. Further details: The human full-length SIRT6 gene was inserted into the prokaryotic expression vector (pET-28a (+)); inferred from the pET-28a(+) vector, Ni-NTA purification and Ni-NTA biosensor loading); made in house; host or cells: Escherichia coli BL21 (DE3). Conditions: fixed concentration of 25 μM, RHKK-Ac-AMC, NI = no inhibition; for inhibition at 25 µM: read-out: Inhibition rate (%). As for the experimental part: The human full-length SIRT6 gene was inserted into the prokaryotic expression vector (pET-28a (+)). The verified recombinant plasmid was transformed into Escherichia coli BL21 (DE3) expression strain and cultured overnight at 37 °C on LB plates supplemented with 50 μg/mL kanamycin. Single colonies were inoculated in fluid kanamycin-containing LB mediums. It was shaken at 160 rpm for 16 h at 37 °C and transferred to kanamycin-containing LB medium at a ratio of 1:100. It was shaken at 160 rpm at 37 °C until the OD600 reached 0.6. The Isopropyl-β-d-thiogalactopyranoside was added to make the final concentration of solution 0.5 mmol/L, cultured for 15 °C and 160 rpm for 24 h.
Bacterial liquid was harvested at 12,000 rpm at 4 °C for 20 min, and then re-suspended in Lysis buffer (20 mmol/L Hepes pH 7.5, 20 mmol/L imidazole, 5% Glycerol, 500 mmol/L NaCl). Cell pellets were disrupted by high-pressure crusher (JNBIO, Guangzhou China) and centrifuged (4 °C, 12000 rpm, for 20 min). Supernatant was collected and purified by FPLC with a 1 mL Ni–NTA Sepharose column (GE Healthcare, Stamford, USA). The SIRT6 protein was eluted at containing 50 mM, 100 mM, 150 mM, 200 mM, and 500 mM imidazole in elution buffer. The purified SIRT6 protein was dialyzed in dialysis buffer (50 mM Tris-HCl, 137 mM NaCl, 2.7 mM KCl, 1 mM MgCl2). The purified SIRT6 protein was analyzed by SDS-PAGE.
Fluor-De-Lys (FDL) assays were used for the examination of the deacetylation activities of sirtuins as described previously. For the detection of SIRT6 activity, the 50-μL reaction mixture contained 5 μM SIRT6, 2.5 mM NAD^+ (β-Nicotinamide adenine dinucleotide hydrate, Sigma, N1636), 75 μM RHKK-Ac-AMC (GL Biochem, Shanghai), compounds/DMSO, and assay buffer. The reactions were incubated at 37 °C for 2 h, added 50 μL stop solution (40 mM nicotinamide, 6 mg/mL trypsin) at 25 °C for 30 min. Fluorescence intensity was measured at an excitation wavelength of 360 nm and an emission wavelength of 460 nm. IC50 values were calculated in GraphPad Prism version 8.00.

In a further assay the test system is BXPC-3 xenografts. The assay can be described thus: BXPC-3 tumor xenograft in nude mice. The format is in vivo, BALB/c nude mice. As to conditions: gemcitabine 10 mg/kg i.p. once every 2 days for 4 weeks. How it is done:
Female BALB/c nude mice (14 ± 2 g, 4 weeks old) were purchase. About 2 × 10^6 of BXPC-3 cells were inoculated into nude mouse flanks. When the tumor volume reached approximately 100 mm^3, mice were randomly divided into four groups with six mice per group before treatment and then treated with vehicle, 8a (20 mg/kg), gemcitabine (10 mg/kg) and their combination every 2 days. Tumor volumes and body weight were measured every 3 days, and use the formula to calculate the tumor volume: V = (L × W × W)/2 (V, tumor volume; L, length; and W, width). Mice were sacrificed and tumor tissues were removed. Tumor tissues were fixed with paraformaldehyde (4%) and embedded with paraffin.
To further confirm whether 8a can enhance the antitumor effects of gemcitabine in vivo, the BXPC-3 PDAC xenografts were used. The mice with tumors received intraperitoneal injection of compound 8a (20 mg/kg), gemcitabine (10 mg/kg), or their combination once every 2 days for 4 weeks. Tumor volumes and body weight of mice were monitored every 3 days.

Another assay concerns BXPC-3 cells. Description: γ-H2AX DNA damage (immunofluorescence, western blot). The assay is classed as cell-based. As to conditions: BXPC-3, 10 nM gemcitabine, 6.25 μM 8a or combination, 24 h. How it is done: Cells were harvested and lysed in a lysis buffer (solarbio, R0010) supplementing 1 mM PMSF and protease inhibitor (TargetMol, USA). […] Then, the membranes were detected by Tanon 5200 (Tanon, Beijing, China). […]
(In western blotting, separated proteins are transferred to a membrane and probed.)

In assay [2] the target is T1, SIRT6. Further details: endogenous in cells; host or cells: HeLa. As to conditions: cited from earlier work.

T1 sequence (Q8N6T7 whole entry): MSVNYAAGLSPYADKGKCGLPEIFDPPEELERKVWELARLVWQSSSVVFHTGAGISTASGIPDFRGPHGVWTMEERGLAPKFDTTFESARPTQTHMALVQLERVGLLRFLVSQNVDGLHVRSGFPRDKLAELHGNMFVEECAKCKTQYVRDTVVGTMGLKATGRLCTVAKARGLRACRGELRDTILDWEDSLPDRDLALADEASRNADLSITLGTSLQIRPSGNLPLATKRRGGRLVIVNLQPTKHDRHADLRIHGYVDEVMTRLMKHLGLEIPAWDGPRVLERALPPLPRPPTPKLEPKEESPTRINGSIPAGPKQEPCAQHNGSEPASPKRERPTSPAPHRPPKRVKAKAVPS

Regarding `BrCCCCCCn1cnc2c(-c3cc(Br)c(Br)[nH]3)nccc21.O=C(O)C(F)(F)F` [Compound 4a], on SIRT6 [1], the “Inhibition rate (%)” value came to 5.3%.
Turning to `Nc1ccn([C@@H]2O[C@H](CO)[C@@H](O)C2(F)F)c(=O)n1` [gemcitabine], the tumor mass inhibition in the assay with BXPC-3 xenografts came out at 30.1%. For the same compound, in the assay with BXPC-3 cells, the γ-H2AX foci entry was “can cause γ-H2AX foci”.
For orientation: inhibition means the share of the control response that was lost under treatment. In the case of `BrCCCCCCn1c(-c2nccc3c2ncn3CCCCCCBr)cc(Br)c1Br` [Compound 11a], on SIRT6 [1], the inhibition at 25 µM was under 0%.
For `Brc1cc(-c2nccc3c2ncn3CCCCCCN2CCCCC2)[nH]c1Br.O=C(O)C(F)(F)F` [Compound 10d], the “Inhibition rate (%)” value at SIRT6 [1] was 16.7%.
On the same count and under the same terms, the same measure for `Brc1cc(-c2nccc3[nH]cnc23)[nH]c1Br.O=C(O)C(F)(F)F` [Compound 2a]: 4.1%.
For `Cn1c(-c2nccc3[nH]cnc23)cc(Br)c1Br` [Compound 1c], the inhibition at 25 µM on SIRT6 [1] was 3.7%.
Turning to `Brc1cc(-c2nccc3c2ncn3CCCCCCN2CCOCC2)n(CCCCCCN2CCOCC2)c1Br` [Compound 11b], on SIRT6 [1], the “Inhibition rate (%)” value is reported as 23.8%.
Consider `O=C(O)C(F)(F)F.O=C1c2ccccc2C(=O)N1CCCCCCn1cnc2c(-c3cc(Br)c(Br)[nH]3)nccc21` [Compound 10c], for which the “Inhibition rate (%)” value on SIRT6 [1] came out at 6.4%.
By IC50 is commonly meant the midpoint of a concentration-inhibition curve. `O=C(Nc1ccc(O)c(C(=O)O)c1)c1cccc(NC(=O)c2ccco2)c1` [OSS_128167]: at SIRT6 [2], the IC50 is 89 µM.
